Like-named read-outs stand apart in the source and are kept apart here.

Common to all, as to assay type: cell-based
For assay [1], the target named is T1, STING WT variant (Homo sapiens, UniProt Q86WV6).
T1 construct: host or cells: HEK-Blue ISG KO-STING cells (Invivogen, hkb-kostg)
Kind of assay: SEAP reporter assay in HEK-Blue ISG KO-STING cells transfected with STING WT variant (Method 1). The following applies: 24 h, SEAP signal vs 0.5% DMSO. The source says:
(§1) Activation of STING can be determined using a SEAP reporter assay in HEK-Blue™ ISG KO-STING cells (Invivogen, cat #hkb-kostg) transfected with plasmids expressing STING variants (WT & HAQ) (referred to WO2017/175147A1). STING variants (WT & HAQ) vector were constructed based on STING-232H vector (Origene, RC208418). GFP vector (VT2069) was bought from Youbio. The detailed protocol as follows: HEK-Blue™ ISG KO-STING cells were harvest and seeding into 96 well plate, the final cell number was 0.8×10^5 cells/well. Transfections were prepared using Lipofectamine 2000 (Invitrogen, Cat #11668-027) following the manufacturer's instructions (Lipo2000/DNA=1/10), 20 ul of transfection suspension containing 1 ng STING vector was added to cell culture plate and incubated at 37° C., 5% CO2 for 24 hours. After 24 hours' incubation, compounds were added at proper concentration, and the final DMSO concentration was 0.5%. After 24 h incubation, the supernatant was collected to detect SEAP signal using Great EscAPe SEAP chemiluminescence KIT (Clontech, cat #631738) and cells were collected to detect cell viability using CellTiter-Glo Luminescent Cell Viability Assay (Promega, cat #G7573) following the manufacturer's instructions. The data were described by the ratio of the stimulating signal of compounds to 0.5% DMSO.

Assay [2] deals with T2, STING HAQ variant (Homo sapiens, UniProt Q86WV6, G230A/R293Q/R71H).
T2 construct: host or cells: HEK-Blue ISG KO-STING cells (Invivogen, hkb-kostg)
T2 sequence (Q86WV6 whole entry R71H/G230A/R293Q): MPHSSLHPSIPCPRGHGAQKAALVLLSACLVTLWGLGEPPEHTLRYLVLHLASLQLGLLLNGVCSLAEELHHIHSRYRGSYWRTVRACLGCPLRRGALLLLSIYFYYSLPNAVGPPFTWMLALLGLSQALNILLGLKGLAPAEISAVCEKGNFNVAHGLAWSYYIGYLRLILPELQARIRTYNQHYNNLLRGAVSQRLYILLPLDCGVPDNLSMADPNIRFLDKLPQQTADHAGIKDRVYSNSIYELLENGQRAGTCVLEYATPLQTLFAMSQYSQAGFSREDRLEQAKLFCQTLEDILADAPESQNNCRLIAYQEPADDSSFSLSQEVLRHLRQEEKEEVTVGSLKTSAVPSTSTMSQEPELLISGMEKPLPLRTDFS
Kind of assay: SEAP reporter assay in HEK-Blue ISG KO-STING cells transfected with STING HAQ variant (Method 1). The following applies: 24 h, SEAP signal vs 0.5% DMSO.
Excerpt: as §1

In assay [3] the target is STING (Homo sapiens, UniProt Q86WV6). Kind of assay: IFN-β secretion from THP1 by STING activation (hIFNβ ELISA). The protocol:
In this assay, activation of STING by compounds was evaluated by detecting their ability to stimulate the secretion of IFN-β (interferon-beta) from THP1. THP1 was purchased from National Collection of Authenticated Cell Cultures (Cat #TCHu 57). The top dose of compounds was setted according to their solubility. First, Compounds were 3 times diluted with medium, 8-dose points in total. The final DMSO concentration was 0.2%. THP1 during the logarithmic phase was resuspended to 2×10^6 cells/ml in assay medium. The THP1-cell suspension was dispensed into a 96-well U bottom plate containing 50 ul of compound diluted in medium. After 24 h incubation at 37° C., 5% CO2, the supernatant was collected. The concentration of IFN-β in the supernatant was measured using a human IFNβ ELISA KIT (R&D, DY814-05). The data was fitted with GraphPad Prism or XLfit to calculate EC50 values.
A general note: An ELISA detects its analyte on a solid surface through an enzyme-linked reagent.

[4] abbreviates: 1 ng STING vector, compound 2.5 uM.
Where [5] appears, read: 1 ng STING vector, compound 5 uM.
Where [6] appears, read: read-out: hIFNβ ELISA (EC50); THP1 cells; 24 h incubation; IFN-β in supernatant; top dose set according to solubility.
Setting [7] is: THP1 cells; 24 h incubation; IFN-β in supernatant; top dose set according to solubility.
Setting [8] is: THP1 cells; 24 h incubation; IFN-β in supernatant; top dose set according to solubility; read-out: hIFNβ ELISA (EC50).

Sequence of STING (Q86WV6 whole entry): as the sequence (Q86WV6 whole entry R71H/G230A/R293Q) above, with H71R, A230G, Q293R counted along it

Turning to `CCn1nc(C)cc1C(=O)Nc1nc2cc(C(N)=O)cc(OCCCNC)c2n1CCC[C@H]1COc2cc(C(N)=O)cc3nc(NC(=O)c4cc(C)nn4CC)n1c23.Cl` [Example 17, (S)-3-(3-(5-carbamoyl-2-(1-ethyl-3-methyl-1H-pyrazole-5-carboxamido)-7-(3-(methylamino)propoxy)-1H-benzo[d]imidazol-1-yl)propyl)-2-(1-ethyl-3-methyl-1H-pyrazole-5-carboxamido)-3,4-dihydro-5-oxa-1,2a-diazaacenaphthylene-7-carboxamide Hydrochloride], the “Fold change related to DMSO control WT” value in assay [1] (setting [4]) was 2.35. In assay [2] (setting [5]), the “Fold change related to DMSO control HAQ” value is on record as 33.85. Also, in assay [3] (setting [6]), the EC50 (commonly the midpoint of the concentration-response curve) was determined as 9.8 µM.
As for `CCn1nc(C)cc1C(=O)Nc1nc2cc(C(N)=O)cc(OC)c2n1CCC[C@@H]1COc2cc(C(N)=O)cc3nc(NC(=O)c4cc(C)nn4CC)n1c23` [Example 4, (R)-3-(3-(5-Carbamoyl-2-(1-ethyl-3-methyl-1H-pyrazole-5-carboxamido)-7-methoxy-1H-benzo[d]imidazol-1-yl)propyl)-2-(1-ethyl-3-methyl-1H-pyrazole-5-carboxamido)-3,4-dihydro-5-oxa-1,2a-diazaacenaphthylene-7-carboxamide], the “Fold change related to DMSO control WT” value in assay [1] (compound 26.8 uM) is on record as 2.22. In addition, the “Fold change related to DMSO control HAQ” value in assay [2] (compound 26.8 uM) was 10.21. Further, the “hIFNβ ELISA (EC50, μM)” value in assay [3] (setting [7]) is “inactive”.
As to `CCn1nc(C)cc1C(=O)Nc1nc2cc(C(N)=O)cc(OCCOC)c2n1CCC[C@H]1COc2cc(C(N)=O)cc3nc(NC(=O)c4cc(C)nn4CC)n1c23` [Example 19, (S)-3-(3-(5-carbamoyl-2-(1-ethyl-3-methyl-1H-pyrazole-5-carboxamido)-7-(2-methoxyethoxy)-1H-benzo[d]imidazol-1-yl)propyl)-2-(1-ethyl-3-methyl-1H-pyrazole-5-carboxamido)-3,4-dihydro-5-oxa-1,2a-diazaacenaphthylene-7-carboxamide], in assay [1] (setting [4]), the “Fold change related to DMSO control WT” value was found to be 2.33. Also, the “Fold change related to DMSO control HAQ” value in assay [2] (setting [5]) was determined as 60.17. For the same molecule, the EC50 in assay [3] (setting [8]) came out at 6.2 µM.
As for `CCn1nc(C)cc1C(=O)Nc1nc2cc(C(N)=O)cc(OCCCN)c2n1CCC[C@H]1COc2cc(C(N)=O)cc3nc(NC(=O)c4cc(C)nn4CC)n1c23.Cl` [Example 14, (S)-3-(3-(7-(3-aminopropoxy)-5-carbamoyl-2-(1-ethyl-3-methyl-1H-pyrazole-5-carboxamido)-1H-benzo[d]imidazol-1-yl)propyl)-2-(1-ethyl-3-methyl-1H-pyrazole-5-carboxamido)-3,4-dihydro-5-oxa-1,2a-diazaacenaphthylene-7-carboxamide], the “Fold change related to DMSO control WT” value in assay [1] (setting [4]) is reported as 2.17. Further, in assay [2] (setting [5]), the “Fold change related to DMSO control HAQ” value came out at 16.68. Besides, the EC50 in assay [3] (setting [6]) is more than 13.7 µM.
`CCn1nc(C)cc1C(=O)Nc1nc2cc(C(N)=O)cc(OCC[C@@H](O)CO)c2n1CCC[C@H]1COc2cc(C(N)=O)cc3nc(NC(=O)c4cc(C)nn4CC)n1c23` [Example 38, (S)-3-(3-(5-carbamoyl-7-((R)-3,4-dihydroxybutoxy)-2-(1-ethyl-3-methyl-1H-pyrazole-5-carboxamido)-1H-benzo[d]imidazol-1-yl)propyl)-2-(1-ethyl-3-methyl-1H-pyrazole-5-carboxamido)-3,4-dihydro-5-oxa-1,2a-diazaacenaphthylene-7-carboxamide]: the “Fold change related to DMSO control WT” value in assay [1] (setting [4]) amounted to 2.15. In addition, the “Fold change related to DMSO control HAQ” value in assay [2] (setting [5]) is on record as 18.05. In addition, the “hIFNβ ELISA (EC50, μM)” value in assay [3] (setting [7]) is “inactive”.
For the molecule `CCn1nc(C)cc1C(=O)Nc1nc2cc(C(N)=O)cc(OCCCNC(=O)CN3CCOCC3)c2n1CCC[C@H]1COc2cc(C(N)=O)cc3nc(NC(=O)c4cc(C)nn4CC)n1c23` [Example 21, (S)-3-(3-(5-carbamoyl-2-(1-ethyl-3-methyl-1H-pyrazole-5-carboxamido)-7-(3-(2-morpholinoacetamido)propoxy)-1H-benzo[d]imidazol-1-yl)propyl)-2-(1-ethyl-3-methyl-1H-pyrazole-5-carboxamido)-3,4-dihydro-5-oxa-1,2a-diazaacenaphthylene-7-carboxamide], the “Fold change related to DMSO control WT” value in assay [1] (setting [4]) was determined as 2.38. The “Fold change related to DMSO control HAQ” value in assay [2] (setting [5]) stood at 40.44. For the same molecule, the EC50 in assay [3] (setting [8]) came out at 1.4 µM.
The like results for `CCn1nc(C)cc1C(=O)Nc1nc2cc(C(N)=O)cc(OCCCN(C)C(=O)CN3CCOCC3)c2n1CCC[C@H]1COc2cc(C(N)=O)cc3nc(NC(=O)c4cc(C)nn4CC)n1c23` [Example 29, (S)-3-(3-(5-carbamoyl-2-(1-ethyl-3-methyl-1H-pyrazole-5-carboxamido)-7-(3-(N-methyl-2-morpholinoacetamido)propoxy)-1H-benzo[d]imidazol-1-yl)propyl)-2-(1-ethyl-3-methyl-1H-pyrazole-5-carboxamido)-3,4-dihydro-5-oxa-1,2a-diazaacenaphthylene-7-carboxamide] were, in that order, 1.99, 27.10 and 6.7 µM.
The like results for `CCn1nc(C)cc1C(=O)Nc1nc2cc(C(N)=O)cc(OCCCNC(=O)CN3CCNCC3)c2n1CCC[C@H]1COc2cc(C(N)=O)cc3nc(NC(=O)c4cc(C)nn4CC)n1c23` [Example 34, (S)-3-(3-(6-carbamoyl-2-(1-ethyl-3-methyl-1H-pyrazole-5-carboxamido)-4-(3-(2-(piperazin-1-yl)acetamido)propoxy)-1H-benzo[d]imidazol-1-yl)propyl)-2-(1-ethyl-3-methyl-1H-pyrazole-5-carboxamido)-3,4-dihydro-5-oxa-1,2a-diazaacenaphthylene-7-carboxamide] were, in that order, 1.51, 6.51 and 9.1 µM.
`CCn1nc(C)cc1C(=O)Nc1nc2cc(C(N)=O)cc(OCCCNS(C)(=O)=O)c2n1CCC[C@H]1COc2cc(C(N)=O)cc3nc(NC(=O)c4cc(C)nn4CC)n1c23` [Example 30, (S)-3-(3-(5-carbamoyl-2-(1-ethyl-3-methyl-1H-pyrazole-5-carboxamido)-7-(3-(methylsulfonamido)propoxy)-1H-benzo[d]imidazol-1-yl)propyl)-2-(1-ethyl-3-methyl-1H-pyrazole-5-carboxamido)-3,4-dihydro-5-oxa-1,2a-diazaacenaphthylene-7-carboxamide]: in assay [1] (setting [4]), the “Fold change related to DMSO control WT” value was 1.96. The “Fold change related to DMSO control HAQ” value in assay [2] (setting [5]) is given as 33.34. Besides, the EC50 in assay [3] (setting [8]) was more than 13 µM.
With `CCn1nc(C)cc1C(=O)Nc1nc2cc(C(N)=O)cc(OCCCS(C)(=O)=O)c2n1CCC[C@H]1COc2cc(C(N)=O)cc3nc(NC(=O)c4cc(C)nn4CC)n1c23` [Example 37, (S)-3-(3-(5-carbamoyl-2-(1-ethyl-3-methyl-1H-pyrazole-5-carboxamido)-7-(3-(methylsulfonyl)propoxy)-1H-benzo[d]imidazol-1-yl)propyl)-2-(1-ethyl-3-methyl-1H-pyrazole-5-carboxamido)-3,4-dihydro-5-oxa-1,2a-diazaacenaphthylene-7-carboxamide], the “Fold change related to DMSO control WT” value in assay [1] (setting [4]) is recorded as 2.14. In addition, the “Fold change related to DMSO control HAQ” value in assay [2] (setting [5]) is 23.71. Further, the “hIFNβ ELISA (EC50, μM)” value in assay [3] (setting [7]) was “inactive”.

Source of the values: patent publication US12364702B2, “Highly active sting protein agonist compound” (ADLAI NORTYE BIOPHARMA CO., LTD., priority 2018, dated 2025).
